Experimental data: patent US7291641B2, “Derivatives of heterocycles with 5 members, their preparation and their use as medicaments” (Societe de Conseils de Recherches et d'Applications …, priority 1999, dated 2007)

SMILES	melting point [°C]
CCCCOC(=O)N[C@@H](C)c1nc(-c2ccc(-c3ccccc3)cc2)c[nH]1 [Example 241, 4-(2-{(1S)-1-[(butoxycarbonyl)amino]ethyl}-1H-imidazol-4-yl)-1,1′-biphenyl]	118 to 122
CCCCOC(=O)N[C@H](C)c1nc(-c2ccc(-c3ccccc3)cc2)c[nH]1 [Example 242, 4-(2-{(1R)-1-[(butoxycarbonyl)amino]ethyl}-1H-imidazol-4-yl)-1,1′-biphenyl]	114 to 116
c1ccc(-c2c[nH]c([C@@H](NC3CCCCC3)C3CCCCC3)n2)cc1 [Example 243, N-[(S)-cyclohexyl(4-phenyl-1H-imidazol-2-yl)methyl]-cyclohexanamine]	240 to 242
COC(=O)NCCc1nc(-c2ccc(-c3ccccc3)cc2)c[nH]1 [Example 244, 4-(2-{2-[(methoxycarbonyl)amino]ethyl}-1H-imidazol-4-yl)-1,1′-biphenyl]	177.2
CCCOC(=O)NCCc1nc(-c2ccc(-c3ccccc3)cc2)c[nH]1 [Example 245, 4-(2-{2-[(propoxycarbonyl)amino]ethyl}-1H-imidazol-4-yl)-1,1′-biphenyl]	141.2
CCOC(=O)NCCc1nc(-c2ccc(-c3ccccc3)cc2)c[nH]1 [Example 246, 4-(2-{2-[(ethoxycarbonyl)amino]ethyl}-1H-imidazol-4-yl)-1,1′-biphenyl]	132.5
CC(C)(NC(=O)OCc1ccccc1)c1nc(-c2ccc(-c3ccccc3)cc2)c[nH]1 [Example 247, 4-[2-(1-{[(benzyloxy)carbonyl]amino}-1-methylethyl)-1H-imidazol-4-yl]-1,1′-biphenyl]	148 to 152
c1ccc(-c2ccc(-c3c[nH]c(CCNC4CCCCC4)n3)cc2)cc1 [Example 249, N-[2-(4-[1,1′-biphenyl]4-yl-1H-imidazol-2-yl)ethyl]-cyclohexanamine]	207 to 210
CCCCOC(=O)NCCc1nc(-c2ccc(F)cc2)c[nH]1 [Example 251, butyl 2-[4-(4-fluorophenyl)-1H-imidazol-2-yl]ethylcarbamate]	87
Brc1cccc(-c2c[nH]c(CNC3CCCCC3)n2)c1 [Example 254, N-{[4-(3-bromophenyl)-1H-imidazol-2-yl]methyl}cyclohexanamine]	202 to 204
CCCCCCOC(=O)NCCc1nc(-c2ccc(-c3ccccc3)cc2)c[nH]1 [Example 255, hexyl 2-(4-[1,1′-biphenyl]-4-yl-1H-imidazol-2-yl)ethylcarbamate]	116.5 to 116.8
CC(C)N[C@H](c1nc(-c2ccc(F)cc2)c[nH]1)C1CCCCC1 [Example 261, N-{(S)-cyclohexyl[4-(4-fluorophenyl)-1H-imidazol-2-yl]methyl}-2-propanamine]	210 to 212
Fc1ccc(-c2c[nH]c([C@@H](NC3CCC3)C3CCCCC3)n2)cc1F [Example 262, N-{(S)-cyclohexyl[4-(3,4-difluorophenyl)-1H-imidazol-2-yl]methyl}cyclobutanamine]	200 to 202
CCCCOC(=O)NCCc1nc(-c2ccc(C3CCCCC3)cc2)c[nH]1 [Example 268, butyl 2-[4-(4-cyclohexylphenyl)-1H-imidazol-2-yl]ethylcarbamate]	138.4
O=C(NCCc1nc(-c2ccc(-c3ccccc3)cc2)c[nH]1)OC1CCCCC1 [Example 269, 4-[2-(2-{[(cyclohexyloxy)carbonyl]amino}ethyl)-1H-imidazol-4-yl]-1,1′-biphenyl]	150
FC(F)(F)Oc1ccc(-c2c[nH]c([C@@H](NC3CCC3)C3CCCCC3)n2)cc1 [Example 270, N-((S)-cyclohexyl{4-[4-(trifluoromethoxy)phenyl]-1H-imidazol-2-yl}methyl)-cyclobutanamine]	136 to 140
O=C(NCCc1nc(-c2ccc(-c3ccccc3)cc2)c[nH]1)OC1CCCC1 [Example 271, 4-[2-(2-{[(cyclopentyloxy)carbonyl]amino}ethyl)-1H-imidazol-4-yl]-1,1′-biphenyl]	140.5
